Data as given in patent US20040142972A1, “CNS target modulators” (Hypnion, Inc., priority 2001, published 2004).
Where a chain is given by its changes, count along the chain named. Counter-ions that a name gives are not always drawn. Like-named read-outs stand apart in the source and are kept apart here.

Tests used:
Male Wistar rats = assay: Sleep-wakefulness, locomotor activity and body temperature monitoring (SCORE-2000) in rats
muscarinic1 binding site = target: T1, muscarinic1 binding site (Bos taurus, UniProt F1N5C5); assay: biochemical
T1 sequence (F1N5C5 1-460): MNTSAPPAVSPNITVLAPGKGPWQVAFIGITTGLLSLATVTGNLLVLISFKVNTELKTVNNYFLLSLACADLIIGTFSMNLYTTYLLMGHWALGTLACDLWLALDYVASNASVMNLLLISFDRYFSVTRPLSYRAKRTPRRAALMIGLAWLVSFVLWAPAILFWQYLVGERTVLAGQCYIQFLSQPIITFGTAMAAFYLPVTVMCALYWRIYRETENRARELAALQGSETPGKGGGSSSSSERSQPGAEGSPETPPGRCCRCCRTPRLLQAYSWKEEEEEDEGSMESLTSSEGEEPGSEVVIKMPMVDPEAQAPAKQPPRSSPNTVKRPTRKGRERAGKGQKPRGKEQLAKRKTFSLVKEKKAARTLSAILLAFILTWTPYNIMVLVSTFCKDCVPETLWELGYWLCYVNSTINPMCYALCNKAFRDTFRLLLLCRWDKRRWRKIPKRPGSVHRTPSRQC

[1] = target: T2, cloned muscarinic - M3 binding site (Homo sapiens, UniProt P20309); assay: Muscarinic M3 binding assay, [3H]-Scopolamine N-Methyl Chloride, human recombinant expressed in CHO cells
T2 construct: expressed in transfected cells; host or cells: CHO cells
T2 sequence (P20309 whole entry): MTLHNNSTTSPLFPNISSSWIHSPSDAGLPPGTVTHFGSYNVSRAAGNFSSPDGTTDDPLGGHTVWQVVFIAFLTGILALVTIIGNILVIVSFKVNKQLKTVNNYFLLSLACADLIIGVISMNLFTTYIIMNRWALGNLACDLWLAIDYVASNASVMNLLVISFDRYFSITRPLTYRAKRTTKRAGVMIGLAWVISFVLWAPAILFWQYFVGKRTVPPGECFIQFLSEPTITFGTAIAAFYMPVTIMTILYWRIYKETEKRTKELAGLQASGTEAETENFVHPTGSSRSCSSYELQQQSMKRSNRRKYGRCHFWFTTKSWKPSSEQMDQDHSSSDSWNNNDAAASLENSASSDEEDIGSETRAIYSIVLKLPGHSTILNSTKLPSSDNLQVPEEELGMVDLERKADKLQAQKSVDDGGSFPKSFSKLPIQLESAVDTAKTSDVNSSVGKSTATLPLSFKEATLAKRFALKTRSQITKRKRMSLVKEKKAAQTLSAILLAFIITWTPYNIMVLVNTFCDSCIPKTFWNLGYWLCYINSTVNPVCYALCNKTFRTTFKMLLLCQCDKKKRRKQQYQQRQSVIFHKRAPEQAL

histamine receptor, H1 = target: T3, histamine receptor, H1 (Bos taurus, UniProt P30546); assay: H1 binding assay, displacement of [3H]Pyrilamine, bovine cerebellar membranes
T3 construct: from tissue; host or cells: bovine cerebellar membranes (per earlier reading)
T3 sequence (P30546 whole entry): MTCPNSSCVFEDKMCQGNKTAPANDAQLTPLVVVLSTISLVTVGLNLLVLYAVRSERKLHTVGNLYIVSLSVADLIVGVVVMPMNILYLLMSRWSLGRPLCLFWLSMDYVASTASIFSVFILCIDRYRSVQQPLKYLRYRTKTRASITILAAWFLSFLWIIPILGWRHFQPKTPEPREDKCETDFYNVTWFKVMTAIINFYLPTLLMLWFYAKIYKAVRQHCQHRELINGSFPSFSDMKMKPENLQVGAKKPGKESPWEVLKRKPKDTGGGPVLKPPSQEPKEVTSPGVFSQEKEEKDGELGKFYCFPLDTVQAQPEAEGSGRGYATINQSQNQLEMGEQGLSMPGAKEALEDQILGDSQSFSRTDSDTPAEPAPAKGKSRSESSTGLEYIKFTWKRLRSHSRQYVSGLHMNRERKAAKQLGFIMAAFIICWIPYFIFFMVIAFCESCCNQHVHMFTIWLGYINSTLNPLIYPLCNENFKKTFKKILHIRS

[2] = target: T4, cloned muscarinic - M1 binding site (Homo sapiens, UniProt P11229); assay: Muscarinic M1 binding assay, [3H]-Scopolamine N-Methyl Chloride, human recombinant expressed in CHO cells
T4 construct: expressed in transfected cells; host or cells: CHO cells
T4 sequence (P11229 1-460): T1 sequence (F1N5C5 1-460) with A206T, T265A, A315T, R331K, E335D

[3] = target: T5, cloned muscarinic - M2 binding site (Homo sapiens, UniProt P08172); assay: Muscarinic M2 binding assay, [3H]-Scopolamine N-Methyl Chloride, human recombinant expressed in CHO cells
T5 construct: expressed in transfected cells; host or cells: CHO cells
T5 sequence (P08172 1-466): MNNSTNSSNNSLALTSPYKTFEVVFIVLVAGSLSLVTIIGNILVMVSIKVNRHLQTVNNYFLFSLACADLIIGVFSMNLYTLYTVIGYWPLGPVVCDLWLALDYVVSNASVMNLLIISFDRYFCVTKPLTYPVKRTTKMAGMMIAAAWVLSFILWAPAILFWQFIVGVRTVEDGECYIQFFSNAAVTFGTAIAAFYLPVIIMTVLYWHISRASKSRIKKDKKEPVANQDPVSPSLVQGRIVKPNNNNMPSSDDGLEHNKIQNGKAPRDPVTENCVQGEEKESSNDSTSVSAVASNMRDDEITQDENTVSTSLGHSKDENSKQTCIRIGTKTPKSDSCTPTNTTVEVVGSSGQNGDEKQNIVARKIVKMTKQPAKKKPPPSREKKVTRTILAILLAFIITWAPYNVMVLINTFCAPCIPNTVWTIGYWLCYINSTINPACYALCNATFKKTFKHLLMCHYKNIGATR

[4] = Table 6, human recombinant, read-out: Receptor Binding Data (Ki nM) M3
[5] = Table 6, read-out: Receptor Binding Data (Ki nM) H1
[6] = Table 6, human recombinant, read-out: Receptor Binding Data (Ki nM) M1
[7] = Table 6, human recombinant, read-out: Receptor Binding Data (Ki nM) M2
[8] = Series 11 compounds, Table 5, unit inferred, receptor source not given
[9] = Series 11 compounds, Table 5, unit inferred, receptor source not given, read-out: M3 Ki
[10] = Series 11 compounds, Table 5, unit inferred, read-out: H1 Ki
[11] = Series 11 compounds, Table 5, unit inferred, receptor source not given, read-out: M1 Ki
[12] = Series 11 compounds, Table 5, unit inferred, receptor source not given, read-out: M2 Ki
[13] = Series 11 compounds, Table 5, unit inferred

Cc1ccc(-c2nc3ccc(C)cn3c2CC(=O)N(C)C)cc1 [Ambien, Zolpidem, reference compound]
Motor Inhibition (Male Wistar rats; 30 mg/kg IP, at CT-18, rats): YES
REM Inhibition (Male Wistar rats; 30 mg/kg IP, at CT-18, rats): YES
Rebound Insomnia (Male Wistar rats; 30 mg/kg IP, at CT-18, rats): YES

CN1[C@@H]2CC[C@H]1C[C@@H](OC(=O)C(CO)c1ccccc1)C2 (stereo partly drawn) [Atropine]
Ki (muscarinic1 binding site): 0.0004 µM

O=C(O)CCN1CCC(OC(c2ccccc2)c2ccccc2)CC1 [Compound 6a, 3-[4-(dipbenylmethoxy)piperidin-1-yl]propanoic acid hydrochloride]
Ki [1, 4]: 8900 nM
Ki (histamine receptor, H1; [5]): 56.1 nM
Ki [2, 6]: > 10000 nM
Ki [3, 7]: > 10000 nM

O=C(O)CN1CCC(=C2c3ccccc3COc3ccccc32)CC1 [Compound 7a]
Ki (histamine receptor, H1; [5]): 55.1 nM

O=C(O)CCN1CCC(=C2c3ccccc3COc3ccccc32)CC1 [Compound 8a]
Ki [1, 4]: > 10000 nM
Ki (histamine receptor, H1; [5]): 62.5 nM
Ki [2, 6]: > 10000 nM
Ki [3, 7]: > 10000 nM

O=C(O)CCN1CCC(=C(c2ccccc2)c2ccccc2)CC1 [Compound 11a]
IC50 [1, 8]: > 10 µM
Ki [1, 9]: > 10000 nM
Ki (histamine receptor, H1; [10]): 119 nM
IC50 [2, 8]: > 10 µM
Ki [2, 11]: > 10000 nM
IC50 [3, 8]: > 10 µM
Ki [3, 12]: > 10000 nM

CC(C)OC(=O)CCN1CCC(=C(c2ccccc2)c2ccccc2)CC1 [Compound 11d, Isopropyl 3-[4-(diphenylmethylidene)piperidin-1-yl]propanoate]
IC50 [1, 8]: 6.08 µM
Ki [1, 9]: 2700 nM
Ki (histamine receptor, H1; [10]): 147 nM
IC50 [2, 8]: 8 µM
Ki [2, 11]: 696 nM
IC50 [3, 8]: 0.829 µM
Ki [3, 12]: 270 nM

CC(C)COC(=O)CCN1CCC(=C(c2ccccc2)c2ccccc2)CC1 [Compound 11e, Isobutyl 3-[4-(diphenylmethylidene)piperidin-1-yl]propanoate]
IC50 [1, 8]: 2.59 µM
Ki [1, 9]: 710 nM
Ki (histamine receptor, H1; [10]): 279 nM
IC50 [2, 8]: 3.76 µM
Ki [2, 11]: 289 nM
IC50 [3, 8]: 3.55 µM
Ki [3, 12]: 1150 nM

O=C(CCN1CCC(=C(c2ccccc2)c2ccccc2)CC1)OC1CCCC1.O=C(O)C(=O)O [Compound 11f, Cyclopentyl 3-[4-(diphenylmethylidene)piperidin-1-yl]propanoate, oxalic acid salt]
cumulative effect on total sleep time (TST) during the initial 5 hours post-treatment, relative to baseline (Male Wistar rats; 11f 30 mg/kg versus Zolpidem 10 mg/kg, rats, FIG. 1(b)): induced more TST than Zolpidem
locomotor activity (Male Wistar rats; male Wistar rats, IP at CT-18, 10 and 30 mg/kg): reduction in locomotor activity
sleep continuity, as assessed by sleep bout length (Male Wistar rats; male Wistar rats, IP at CT-18, 10 and 30 mg/kg, relative to vehicle control): increased sleep continuity
total sleep time (Male Wistar rats; male Wistar rats, IP at CT-18, both 30 mg/kg and 10 mg/kg): significantly increased total sleep time for 3 hours post-treatment
soporific effects (nonREM sleep time, sleep continuity) (Male Wistar rats; male Wistar rats, intraperitoneal bolus at CT-18, 11f 30 and 10 mg/kg, 6f and 15f 30 mg/kg): robust soporific effects
Ki (histamine receptor, H1; [10]): 416 nM
IC50 [2, 8]: 2.21 µM
Ki [2, 11]: 170 nM

O=C(CCN1CCC(=C(c2ccccc2)c2ccccc2)CC1)O[C@H]1CCOC1 [Compound 11g]
IC50 (histamine receptor, H1; [13]): 0.196 µM
Ki (histamine receptor, H1; [10]): 86.1 nM

O=C(CCN1CCC(=C(c2ccccc2)c2ccccc2)CC1)OC1CCOC1 (stereo not drawn) [Compound 11h]
IC50 [1, 8]: 2.2 µM
Ki [1, 9]: 603 nM
IC50 (histamine receptor, H1; [13]): 0.201 µM
Ki (histamine receptor, H1; [10]): 88.3 nM
IC50 [2, 8]: 2.24 µM
Ki [2, 11]: 172 nM
IC50 [3, 8]: 2.14 µM
Ki [3, 12]: 697 nM

O=C(CCN1CCC(=C(c2ccccc2)c2ccccc2)CC1)OC1CCOCC1 [Compound 11i]
IC50 [1, 8]: 2.33 µM
Ki [1, 9]: 1030 nM
IC50 (histamine receptor, H1; [13]): 0.2 µM
Ki (histamine receptor, H1; [10]): 87.8 nM
IC50 [2, 8]: 0.221 µM
Ki [2, 11]: 17 nM
IC50 [3, 8]: 0.221 µM
Ki [3, 12]: 72 nM

Cc1ccc(/C(=C\CN2CCCC2)c2cccc(C(=O)O)n2)cc1 [Compound 16a]
Ki [1, 4]: > 10000 nM
Ki [2, 6]: > 10000 nM
Ki [3]: > 10000 nM

O=C(O)CCCN1CCC(OC(c2ccccc2)c2ccccc2)CC1 [Compound 53a]
Ki [1, 4]: > 10000 nM
Ki (histamine receptor, H1; [5]): 16.1 nM
Ki [2, 6]: > 10000 nM
Ki [3, 7]: > 10000 nM

O=C(O)CCCN1CCC(=C2c3ccccc3COc3ccccc32)CC1 [Compound 73a]
Ki [1, 4]: > 10000 nM
Ki (histamine receptor, H1; [5]): 42.8 nM
Ki [2, 6]: > 10000 nM
Ki [3, 7]: > 10000 nM

CC(C)(CN1CCC(=C2c3ccccc3COc3ccccc32)CC1)C(=O)O [Compound 74a]
Ki [1, 4]: > 10000 nM
Ki (histamine receptor, H1; [5]): 109 nM
Ki [2, 6]: > 10000 nM
Ki [3, 7]: > 10000 nM

CC(C)(CCN1CCC(=C2c3ccccc3COc3ccccc32)CC1)C(=O)O [Compound 75a]
Ki [1, 4]: > 10000 nM
Ki (histamine receptor, H1; [5]): 47.9 nM
Ki [2, 6]: > 10000 nM
Ki [3, 7]: 3330 nM

CN(C)CCCSC(=N)N [Dimaprit, reference compound]
Ki (histamine receptor, H1; reference compounds, bovine cerebellar membranes, [3H]Pyrilamine 2.0 nM, read-out: Ki): > 10000 nM

COc1ccccc1CNCCCCCCNCCCCCCCCNCCCCCCNCc1ccccc1OC [Methoctramine, reference compound]
Ki ([1]; reference compounds, M3 human recombinant in CHO cells, read-out: Ki): 700 nM
Ki [2]: 29.7 nM

Cc1scc2c1N(C(=O)CN1CCN(C)CC1)c1ccccc1NC2=O [Telenzepine]
Ki (muscarinic1 binding site): 0.0645 µM

CC(C)OC(=O)CN1CCC(=C2c3ccccc3COc3ccccc32)CC1 [dox7d-oxalate]
Ki [1, 4]: > 10000 nM
Ki (histamine receptor, H1; [5]): 198 nM
Ki [2, 6]: > 10000 nM
Ki [3, 7]: > 10000 nM
